Values after ≈ are worked out from the molar mass of the structure shown.
Tests used:
Format in all cases: functional
[1] = system: Staphylococcus aureus; assay: Ratio of MIC for norfloxacin to compound for methicillin-resistant Staphylococcus aureus CCARM 3167 after 24 hrs by two-fold serial dilution method
[2] = system: Staphylococcus aureus; assay: Antibacterial activity against Staphylococcus aureus KCTC 209 after 24 hrs by two-fold serial dilution method; details: KCTC 209, 24 h
[3] = system: Staphylococcus aureus; assay: Antibacterial activity against quinolone-resistant Staphylococcus aureus CCARM 3519 after 24 hrs by two-fold serial dilution method; details: CCARM 3519, 24 h
[4] = system: Staphylococcus aureus; assay: Antibacterial activity against Staphylococcus aureus KCTC 4220 after 24 hrs by two-fold serial dilution method; details: KCTC 4220, 24 h
[5] = system: Staphylococcus aureus; assay: Antibacterial activity against methicillin-resistant Staphylococcus aureus CCARM 3506 after 24 hrs by two-fold serial dilution method; details: CCARM 3506, 24 h
[6] = system: Escherichia coli; assay: Antibacterial activity against Escherichia coli 1356 after 24 hrs by two-fold serial dilution method; details: Escherichia coli, 1356, 24 h
[7] = system: Staphylococcus aureus; assay: Antibacterial activity against Staphylococcus aureus KCTC 503 after 24 hrs by two-fold serial dilution method; details: KCTC 503, 24 h
[8] = system: Staphylococcus aureus; assay: Antibacterial activity against methicillin-resistant Staphylococcus aureus CCARM 3167 after 24 hrs by two-fold serial dilution method; details: CCARM 3167, 24 h
[9] = system: Staphylococcus aureus; assay: Ratio of MIC for norfloxacin to compound for methicillin-resistant Staphylococcus aureus CCARM 3506 after 24 hrs by two-fold serial dilution method
[10] = system: Staphylococcus aureus; assay: Ratio of MIC for oxacillin to compound for methicillin-resistant Staphylococcus aureus CCARM 3167 after 24 hrs by two-fold serial dilution method
[11] = system: Staphylococcus aureus; assay: Antibacterial activity against quinolone-resistant Staphylococcus aureus CCARM 3505 after 24 hrs by two-fold serial dilution method; details: CCARM 3505, 24 h
[12] = system: Staphylococcus aureus; assay: Ratio of MIC for norfloxacin to compound for quinolone-resistant Staphylococcus aureus CCARM 3519 after 24 hrs by two-fold serial dilution method
[13] = system: Staphylococcus aureus; assay: Ratio of MIC for oxacillin to compound for methicillin-resistant Staphylococcus aureus CCARM 3506 after 24 hrs by two-fold serial dilution method
[14] = system: Staphylococcus aureus; assay: Ratio of MIC for norfloxacin to compound for quinolone-resistant Staphylococcus aureus CCARM 3505 after 24 hrs by two-fold serial dilution method
[15] = system: Staphylococcus aureus; assay: Ratio of MIC for norfloxacin to compound for Staphylococcus aureus KCTC 209 after 24 hrs by two-fold serial dilution method
[16] = system: Staphylococcus aureus; assay: Ratio of MIC for norfloxacin to compound for Staphylococcus aureus KCTC 503 after 24 hrs by two-fold serial dilution method
[17] = system: Staphylococcus aureus; assay: Ratio of MIC for norfloxacin to compound for Staphylococcus aureus KCTC 4220 after 24 hrs by two-fold serial dilution method

| Structure (SMILES) | Ratio [1] | MIC [2] | MIC [3] | MIC [4] | MIC [5] | MIC [6] | MIC [7] | MIC [8] | Ratio [9] | Ratio [10] | MIC [11] | Ratio [12] | Ratio [13] | Ratio [14] | Ratio [15] | Ratio [16] | Ratio [17] |
| --- | --- | --- | --- | --- | --- | --- | --- | --- | --- | --- | --- | --- | --- | --- | --- | --- | --- |
| O=C(COc1ccc(/C=C2\SC(=S)N([C@@H](Cc3ccccc3)C(=O)O)C2=O)cc1)c1ccc(F)cc1 | 4 | 4 µg/mL (≈ 7.67 µM) | 1 µg/mL (≈ 1.92 µM) | 4 µg/mL (≈ 7.67 µM) | 1 µg/mL (≈ 1.92 µM) | > 64 µg/mL | 4 µg/mL (≈ 7.67 µM) | 1 µg/mL (≈ 1.92 µM) | 4 | 64 | 1 µg/mL (≈ 1.92 µM) | 64 | 64 | 64 | – | – | – |
| O=C(COc1ccc(/C=C2\SC(=S)N([C@@H](Cc3c[nH]c4ccccc34)C(=O)O)C2=O)cc1)c1ccc(Cl)cc1 | 4 | 1 µg/mL (≈ 1.73 µM) | 1 µg/mL (≈ 1.73 µM) | 1 µg/mL (≈ 1.73 µM) | 1 µg/mL (≈ 1.73 µM) | > 64 µg/mL | 1 µg/mL (≈ 1.73 µM) | 1 µg/mL (≈ 1.73 µM) | 4 | 64 | 1 µg/mL (≈ 1.73 µM) | 64 | 64 | 64 | 2 | 2 | 2 |
| O=C(COc1ccc(/C=C2\SC(=S)N([C@@H](Cc3c[nH]c4ccccc34)C(=O)O)C2=O)cc1)c1cccc(Cl)c1 | 4 | 4 µg/mL (≈ 6.93 µM) | 1 µg/mL (≈ 1.73 µM) | 8 µg/mL (≈ 13.9 µM) | 1 µg/mL (≈ 1.73 µM) | > 64 µg/mL | 4 µg/mL (≈ 6.93 µM) | 1 µg/mL (≈ 1.73 µM) | 4 | 64 | 1 µg/mL (≈ 1.73 µM) | 64 | 64 | 64 | – | – | – |
| Cc1ccc(C(=O)COc2ccc(/C=C3\SC(=S)N([C@@H](Cc4ccccc4)C(=O)O)C3=O)cc2)cc1 | – | 8 µg/mL (≈ 15.5 µM) | 8 µg/mL (≈ 15.5 µM) | 8 µg/mL (≈ 15.5 µM) | 8 µg/mL (≈ 15.5 µM) | > 64 µg/mL | 8 µg/mL (≈ 15.5 µM) | 4 µg/mL (≈ 7.73 µM) | – | – | 4 µg/mL (≈ 7.73 µM) | – | – | – | – | – | – |
| O=C(COc1ccc(/C=C2\SC(=S)N([C@@H](Cc3ccccc3)C(=O)O)C2=O)cc1)c1ccccc1Br | – | 4 µg/mL (≈ 6.87 µM) | 8 µg/mL (≈ 13.7 µM) | 8 µg/mL (≈ 13.7 µM) | 8 µg/mL (≈ 13.7 µM) | > 64 µg/mL | 8 µg/mL (≈ 13.7 µM) | 4 µg/mL (≈ 6.87 µM) | – | – | 4 µg/mL (≈ 6.87 µM) | – | – | – | – | – | – |
| O=C(COc1ccc(/C=C2\SC(=S)N([C@@H](Cc3ccccc3)C(=O)O)C2=O)cc1)c1ccc(Cl)cc1 | – | 4 µg/mL (≈ 7.43 µM) | 4 µg/mL (≈ 7.43 µM) | 4 µg/mL (≈ 7.43 µM) | 4 µg/mL (≈ 7.43 µM) | > 64 µg/mL | 8 µg/mL (≈ 14.9 µM) | 4 µg/mL (≈ 7.43 µM) | – | – | 4 µg/mL (≈ 7.43 µM) | – | – | – | – | – | – |
| O=C(COc1ccc(/C=C2\SC(=S)N([C@@H](Cc3c[nH]c4ccccc34)C(=O)O)C2=O)cc1)c1ccccc1Br | – | 4 µg/mL (≈ 6.44 µM) | 8 µg/mL (≈ 12.9 µM) | 8 µg/mL (≈ 12.9 µM) | 8 µg/mL (≈ 12.9 µM) | > 64 µg/mL | 4 µg/mL (≈ 6.44 µM) | 4 µg/mL (≈ 6.44 µM) | – | – | 4 µg/mL (≈ 6.44 µM) | – | – | – | – | – | – |
| COc1cccc(C(=O)COc2ccc(/C=C3\SC(=S)N([C@@H](Cc4ccc(O)cc4)C(=O)O)C3=O)cc2)c1 | – | 8 µg/mL (≈ 14.6 µM) | 16 µg/mL (≈ 29.1 µM) | 32 µg/mL (≈ 58.2 µM) | 16 µg/mL (≈ 29.1 µM) | > 64 µg/mL | 8 µg/mL (≈ 14.6 µM) | 8 µg/mL (≈ 14.6 µM) | – | – | 8 µg/mL (≈ 14.6 µM) | – | – | – | – | – | – |
| O=C(COc1ccc(/C=C2\SC(=S)N([C@@H](Cc3ccc(O)cc3)C(=O)O)C2=O)cc1)c1ccccc1Br | – | 16 µg/mL (≈ 26.7 µM) | 32 µg/mL (≈ 53.5 µM) | 32 µg/mL (≈ 53.5 µM) | 32 µg/mL (≈ 53.5 µM) | > 64 µg/mL | 16 µg/mL (≈ 26.7 µM) | 16 µg/mL (≈ 26.7 µM) | – | – | 16 µg/mL (≈ 26.7 µM) | – | – | – | – | – | – |
| O=C(COc1ccc(/C=C2\SC(=S)N([C@@H](Cc3c[nH]c4ccccc34)C(=O)O)C2=O)cc1)c1ccccc1F | – | 8 µg/mL (≈ 14.3 µM) | 8 µg/mL (≈ 14.3 µM) | 8 µg/mL (≈ 14.3 µM) | 8 µg/mL (≈ 14.3 µM) | > 64 µg/mL | 8 µg/mL (≈ 14.3 µM) | 8 µg/mL (≈ 14.3 µM) | – | – | 8 µg/mL (≈ 14.3 µM) | – | – | – | – | – | – |
| O=C(COc1ccc(/C=C2\SC(=S)N([C@@H](Cc3c[nH]c4ccccc34)C(=O)O)C2=O)cc1)c1cccc(Br)c1 | – | 2 µg/mL (≈ 3.22 µM) | 4 µg/mL (≈ 6.44 µM) | 4 µg/mL (≈ 6.44 µM) | 4 µg/mL (≈ 6.44 µM) | > 64 µg/mL | 4 µg/mL (≈ 6.44 µM) | 4 µg/mL (≈ 6.44 µM) | – | – | 4 µg/mL (≈ 6.44 µM) | – | – | – | – | – | – |

Source: ChEMBL document CHEMBL2040848, “Synthesis and bioactivity evaluation of rhodanine derivatives as potential anti-bacterial agents” (2012)
